Patent US6720480B2, “Maize proteinase inhibitor-like polynucleotides and defense-activated promoter, transformed plants, and methods of use” (Pioneer Hi-Bred International, Inc., priority 2000, dated 2004)
Where “and” joins values, the source holds several entries; their conditions need not be identical. Identical values can stand only once.

Tests used:
[1] = test system: nucleotide sequences operably linked to the proteinase inhibitor-like promoter; settings: HC-toxin 1 μg/ml; Northern analysis, average of 3 repeated experiments
[2] = test system: zmBBI1::GUS (proteinase inhibitor-like promoter); experiment: Co-bombardment of maize immature embryos with zmBBI1::GUS, GUS fluorometric assay after chemical treatment; assay type: cell-based; settings: for normalized promoter activity (GUS/Luci), Table 2b: Lucif adj for SA (/0.38); for normalized promoter activity (GUS/Luci), Table 2a: luciferase of sample with no chemicals; for GUS/Luci: Lucif adj for SA and JA (Luci for none); for GUS/Luci / GUS pmol MU/min/ml extract (ave) / GUS pmol MU/min/ml extract (ave), less backg 45.6: Rep 1 and 2; for GUS pmol MU/min/ml extract (ave) / GUS pmol MU/min/ml extract (ave), less backg 45.6: SA 1 mM, JA 0.1 mM; for GUS pmol MU/min/ml extract (ave): 20 h; for GUS pmol MU/min/ml extract (ave), less backg 45.6: second GUS column without own head
Method: The activity of the promoter was also studied in the presence of the putative defense activator, zmNPR1. Specifically, maize immature embryos (IE) were co-bombarded with the zmBBI1::GUS construct along with Act::luciferease as an internal standard and either a carrier DNA or an putative defense activators, zmNPR1 (U.S. patent application Ser. No. 09/551,778, filed Apr. 18, 2000, herein incorporated by reference). Particle preparation and DNA coating were carried out as described by Zhang et al.((2000) Plant Cell Reports 19:241-250) except for use of tungsten (1.0 μm) particles and different amounts of DNA: 50 μl zmBBI1::GUS at 0.02 μg/μl, Act::luciferase at 0.1 μg/μl, and 5 μl of the carrier or activator DNA at 1.0 μg/μl. The amount of DNA delivered for each bombardment were 0.33, 0.17, and 1.67 μg for zmBBI1::GUS, Act::luciferase, and the carrier or activator, respectively. The DNA concentration for zmBBI1::GUS was chosen in previous experiments for low background expression. A total of 45 IEs were used for each bombardment. IEs were placed on the osmotic medium (Vain et al. (1993) Plant Cell Reports 12:84-88) for 4 h before bombardment. The distance from the stopping screen to the target was 10 cm and bombardment was done at 650 psi with a PDS 1000/He device (Bio-Rad Laboratories).
After the bombardment the IEs were cultured on the same osmotic medium for 20-24 hr. Subsequently, the 45 IEs were randomly divided into three groups, 15 IEs for each. They were, then, transferred to three new petri dishes (60×25 mm) for chemical treatments. A piece of filter paper had been placed in each petri dish and wetted with 1.25 ml of 560Y liquid medium containing no chemical, 1 mM SA and 0.1 mM JA, respectively. The IEs were cultured again for another 20 h.
Three IEs from each group were then histochemically stained in X-Gluc staining solution (McCabe et al. (1988) Bio/Technology 6:923-926) for overnight at 37° C. The rest of the IEs were subjected to GUS fluorometric and luciferase assays. Fluorometric measurements of GUS activity were performed by using 50 μl protein extract prepared from the 12 IEs of each treatment and quantified in Fluoroskan Ascent FL (Labsystem) for two time points, 10 and 30 min. Luciferase activity was quantified in a Monolight 2010 (Analytical Luminescence Lab) by mixing 20 μl of protein extract with 100 μl of reaction buffer (Dual-Luciferase Reporter Assay System, Promega) and taking the measurements after 10 s. […]

Row | SMILES | increase in expression level of the reporter sequence linked to the promoter [1] [fold] | normalized promoter activity (GUS/Luci), Table 2b ([2]; Rep 1, NPR1+) | normalized promoter activity (GUS/Luci), Table 2a ([2]; Rep 1, NPR1+) | normalized promoter activity (GUS/Luci), Table 2b ([2]; Rep 1, NPR1−) | normalized promoter activity (GUS/Luci), Table 2a ([2]; Rep 1, NPR1−) | normalized promoter activity (GUS/Luci), Table 2b ([2]; Rep 2, NPR1+) | normalized promoter activity (GUS/Luci), Table 2a ([2]; Rep 2, NPR1+) | normalized promoter activity (GUS/Luci), Table 2b ([2]; Rep 2, NPR1−) | normalized promoter activity (GUS/Luci), Table 2a ([2]; Rep 2, NPR1−) | GUS/Luci ([2]; zmNPR1 N) | GUS pmol MU/min/ml extract (ave) ([2]; zmNPR1 N) | GUS pmol MU/min/ml extract (ave), less backg 45.6 ([2]; zmNPR1 N) | GUS/Luci ([2]; zmNPR1 Y) | GUS pmol MU/min/ml extract (ave) ([2]; zmNPR1 Y) | GUS pmol MU/min/ml extract (ave), less backg 45.6 ([2]; zmNPR1 Y) | expression of sequence operably linked to the proteinase inhibitor-like promoter (in words) ([2]; maize immature embryos co-bombarded with zmBBI1::GUS)
1 | C[C@@H]1NC(=O)[C@H]2CCCN2C(=O)[C@H](CCCCCC(=O)[C@@H]2CO2)NC(=O)[C@@H](C)NC1=O [HC-toxin] | 2 |  |  |  |  |  |  |  |  |  |  |  |  |  |  | 
2 | CC/C=C\C[C@H]1C(=O)CC[C@@H]1CC(=O)O [JA, jasmonic acid] |  | 3.39 | 3.19 | 8.73 | 6.5 | 3.54 | 3.19 | 11.42 | 11.74 | 11.74 and 6.50 | 62.22 pmol MU/min/ml extract and 58.61 pmol MU/min/ml extract | 16.62 pmol MU/min/ml extract and 13.01 pmol MU/min/ml extract | 3.19 | 55.25 pmol MU/min/ml extract and 54.57 pmol MU/min/ml extract | 9.65 pmol MU/min/ml extract and 8.97 pmol MU/min/ml extract | 
3 | O=C(O)c1ccccc1O [SA, salicylic acid] |  | 13.95 | 20.12 | 34.87 | 38.35 | 14.91 | 19.22 | 31.15 | 40.51 | 40.15 and 38.35 | 102.94 pmol MU/min/ml extract and 122.31 pmol MU/min/ml extract | 57.34 pmol MU/min/ml extract and 76.71 pmol MU/min/ml extract | 20.12 and 19.22 | 106.54 pmol MU/min/ml extract and 99.71 pmol MU/min/ml extract | 60.94 pmol MU/min/ml extract and 54.11 pmol MU/min/ml extract | induces expression
